Like-named read-outs stand apart in the source and are kept apart here.

The test has as its system MCH receptors. Nature of the test: MCH receptor activity class (method not given).
Where [1] appears, read: class by percent of control at 10^-7 M or IC50.
Setting [2] is: activity class per percent of control at 10^-7 M or IC50.
The mark [3] stands for this setting: class 1-3 by percent of control at 10^-7 M or IC50.
Setting [4] is: class by percent of control at 10^−7 M or IC50.
Setting [5] is: MCH receptor, class by percent of control at 10^-7 M or IC50.
Where [6] appears, read: MCH receptor activity class 1-3 (percent of control at 10^-7 M or IC50).

As for `COc1ccc2[nH]cc(CN[C@H]3CC[C@@H](Nc4nccc(N(C)C)n4)CC3)c2c1` [compound 1210], the class under setting [1] is reported as 3 (Class 3 The value of percent of control at 10^−7 M was more than 60% or the value of IC50 was more than 200 nM.).

For `Cc1cc(N[C@H]2CC[C@@H](NC(=O)COc3ccc(Cl)cc3)CC2)nc2ccccc12` [Example 2551, 2-(4-chlorophenoxy)-N-{cis-4-[(4-methylquinolin-2-yl)amino]cyclohexyl}acetamide], the class was determined as 1.

For the molecule `COc1ccc(Br)c(C(=O)N[C@H]2CC[C@@H](Nc3nccc(N(C)C)n3)CC2)c1` [compound 339], the class under setting [1] was 3 (Class 3 The value of percent of control at 10^−7 M was more than 60% or the value of IC50 was more than 200 nM.).

Turning to `CN(C)c1cc(N[C@H]2CC[C@@H](CNCc3cc(C(F)(F)F)ccc3F)CC2)nc2ccccc12` [compound 1153], the class under setting [2] is recorded as 3 (Class 3 The value of percent of control at 10^−7 M was more than 60% or the value of IC50 was more than 200 nM.).

Consider `CN(C)c1ccnc(N[C@H]2CC[C@@H](CNC(=O)Cc3ccccc3Br)CC2)n1` [compound 425], for which the class under setting [3] is on record as 2 (Class 2: The value of percent of control at 10^−7 M was from 40% to 60% or the value of IC′50 was from 50 nM to 200 nM.).

Regarding `Cc1cc(N(C)C)nc(N[C@H]2CC[C@@H](CNC(=O)c3ccc(C)c(F)c3)CC2)n1` [compound 2755], the class under setting [4] was 2 (Class 2: The value of percent of control at 10^−7 M was from 40% to 60% or the value of IC′50 was from 50 nM to 200 nM.).

Regarding `CN(C)c1nc(N[C@H]2CC[C@@H](NC(=O)CCC(=O)c3ccc(F)cc3)CC2)nc2c1CCCC2` [compound 983], the class under setting [2] is 2 (Class 2: The value of percent of control at 10^−7 M was from 40% to 60% or the value of IC′50 was from 50 nM to 200 nM.).

For `CN(C)c1nc(N[C@H]2CC[C@@H](NC(=S)NCCCCc3ccccc3)CC2)nc2c1CCCC2` [compound 2064], the class under setting [5] was 3 (Class 3 The value of percent of control at 10^−7 M was more than 60% or the value of IC50 was more than 200 nM.).

As for `CN(C)c1cc(N[C@H]2CC[C@@H](NC[C@@H](COCc3ccccc3)OCc3ccccc3)CC2)nc2ccccc12` [compound 1453], the class under setting [1] was 3 (Class 3 The value of percent of control at 10^−7 M was more than 60% or the value of IC50 was more than 200 nM.).

Turning to `CN(C)c1ccnc(N[C@H]2CC[C@@H](NC(=O)Nc3ccccc3I)CC2)n1` [compound 2198], the class under setting [1] is recorded as 3 (Class 3 The value of percent of control at 10^−7 M was more than 60% or the value of IC50 was more than 200 nM.).

On to `Cc1ccccc1NC(=O)NC[C@H]1CC[C@@H](Nc2nc3c(c(N(C)C)n2)CCCC3)CC1` [compound 2460], for which, under setting [6], the class is 3 (Class 3 The value of percent of control at 10^−7 M was more than 60% or the value of IC50 was more than 200 nM.).

Consider `CN(C)c1ccnc(N[C@H]2CC[C@@H](NC(=O)c3ccccc3SC(F)F)CC2)n1` [compound 300], for which the class under setting [1] is 3 (Class 3 The value of percent of control at 10^−7 M was more than 60% or the value of IC50 was more than 200 nM.).

Turning to `Cc1cc(N[C@H]2CC[C@@H](NC(=O)Nc3cccc(Oc4ccccc4)c3)CC2)nc2ccccc12` [Example 2560, N-{cis-4-[(4-methylquinolin-2-yl)amino]cyclohexyl}-N′-(3-phenoxyphenyl)urea], the class is given as 2.

Turning to `CC(Oc1ccccc1)C(=O)NC[C@H]1CC[C@@H](Nc2cc(N(C)C)c3ccccc3n2)CC1` (relative stereo) [compound 176, N-[(cis-4-{[4-(dimethylamino)quinolin-2-yl]amino}cyclohexyl)methyl]-2-phenoxypropanamide], the class under setting [5] is 3 (Class 3 The value of percent of control at 10^−7 M was more than 60% or the value of IC50 was more than 200 nM.).

For the molecule `CN(C)c1nc(N[C@H]2CC[C@@H](NC(=S)Nc3ccc(N(C)C)c4ccccc34)CC2)nc2c1CCCC2` [compound 1747], the class under setting [1] was 2 (Class 2: The value of percent of control at 10^−7 M was from 40% to 60% or the value of IC′50 was from 50 nM to 200 nM.).

Consider `Cc1cc(C(=O)N[C@H]2CC[C@@H](Nc3nccc(N(C)C)n3)CC2)n(C)n1` [compound 321], for which the class under setting [1] is 3 (Class 3 The value of percent of control at 10^−7 M was more than 60% or the value of IC50 was more than 200 nM.).

Consider `CN(C)c1ccnc(N[C@H]2CC[C@@H](NC(=O)Cc3c(-c4ccccc4)[nH]c4ccccc34)CC2)n1` [compound 869, N-(cis-4-{[4-(dimethylamino)pyrimidin-2-yl]amino}cyclohexyl)-2-(2-phenyl-1H-indol-3-yl)acetamide], for which the class under setting [1] is 1 (Class 1: The value of percent of control at 10^−7 M was less than 40% or the value of IC50 was less than 50 nM.).

Consider `CN(C)c1nc(N[C@H]2CC[C@@H](NC(=O)Nc3cccc(Cl)c3Cl)CC2)nc2c1CCCC2` [compound 1795], for which, under setting [1], the class is 2 (Class 2: The value of percent of control at 10^−7 M was from 40% to 60% or the value of IC′50 was from 50 nM to 200 nM.).

As for `CN(C)c1cc(N[C@H]2CC[C@@H](NC(=S)Nc3ccc(Br)cc3Cl)CC2)nc2ccccc12` [compound 2271], the class under setting [1] is given as 3 (Class 3 The value of percent of control at 10^−7 M was more than 60% or the value of IC50 was more than 200 nM.).

As to `Cc1cnc(N[C@H]2CC[C@@H](C(=O)N[C@H](C)c3ccc(Cl)cc3)CC2)nc1N(C)C` [compound 2778, cis-N-[(1R)-1-(4-chlorophenyl)ethyl]-4-{[4-(dimethylamino)-5-methylpyrimidin-2-yl]amino}cyclohexanecarboxamide], the class under setting [4] was 1 (Class 1: The value of percent of control at 10^−7 M was less than 40% or the value of IC50 was less than 50 nM.).

Consider `CN(C)c1nc(N[C@H]2CC[C@@H](NC(=S)Nc3ccccc3)CC2)nc2c1CCCC2` [compound 1955], for which the class under setting [5] was 3 (Class 3 The value of percent of control at 10^−7 M was more than 60% or the value of IC50 was more than 200 nM.).

As to `CN(C)c1cc(N[C@H]2CC[C@@H](NC(=O)c3cccnc3Sc3ccccc3)CC2)nc2ccccc12` [compound 136], under setting [5], the class was 3 (Class 3 The value of percent of control at 10^−7 M was more than 60% or the value of IC50 was more than 200 nM.).

Regarding `CCCc1ccc(NC(=O)[C@H]2CC[C@@H](Nc3ncc(C)c(N(C)C)n3)CC2)cc1` [compound 2785], under setting [4], the class is given as 2 (Class 2: The value of percent of control at 10^−7 M was from 40% to 60% or the value of IC′50 was from 50 nM to 200 nM.).

Take `C[C@@H](NC(=S)N[C@H]1CC[C@@H](Nc2nccc(N(C)C)n2)CC1)c1ccccc1` [compound 2343]: the class under setting [6] was 3 (Class 3 The value of percent of control at 10^−7 M was more than 60% or the value of IC50 was more than 200 nM.).

As to `CN(C)c1nc(N[C@H]2CC[C@@H](CNC(=O)Cc3cccs3)CC2)nc2c1CCCC2` [compound 615], the class under setting [1] is 3 (Class 3 The value of percent of control at 10^−7 M was more than 60% or the value of IC50 was more than 200 nM.).

Take `CN(C)c1nc(N[C@H]2CC[C@@H](NC(=O)Nc3cccc(C#N)c3)CC2)nc2c1CCCC2` [compound 1817]: the class under setting [1] was 3 (Class 3 The value of percent of control at 10^−7 M was more than 60% or the value of IC50 was more than 200 nM.).

With `CN(C)c1nc(N[C@H]2CC[C@@H](NC(=O)c3ccc(OC(F)(F)F)c(Cl)c3)CC2)nc2c1CCCC2` [compound 579], the class under setting [3] was 3 (Class 3 The value of percent of control at 10^−7 M was more than 60% or the value of IC50 was more than 200 nM.).

As to `CN(C)c1ccnc(N[C@H]2CC[C@@H](NC(=S)NC3CC4CCC3C4)CC2)n1` (relative stereo) [compound 2355], the class under setting [6] is 3 (Class 3 The value of percent of control at 10^−7 M was more than 60% or the value of IC50 was more than 200 nM.).

In the case of `Cc1cc([N+](=O)[O-])ccc1NC(=S)N[C@H]1CC[C@@H](Nc2nccc(N(C)C)n2)CC1` [compound 2336], under setting [6], the class is listed as 3 (Class 3 The value of percent of control at 10^−7 M was more than 60% or the value of IC50 was more than 200 nM.).

Turning to `CN(C)c1nc(N[C@H]2CC[C@@H](NCCN(CCC#N)c3ccccc3)CC2)nc2c1CCCC2` [compound 1490], the class under setting [1] is listed as 1 (Class 1: The value of percent of control at 10^−7 M was less than 40% or the value of IC50 was less than 50 nM.).

Take `COc1cc(COC(=O)NC2CCC(Nc3nccc(N(C)C)n3)CC2)c([N+](=O)[O-])cc1OC` (stereo not drawn) [compound 1621, [4-(4-Dimethylamino-pyrimidin-2-ylamino)-cyclohexyl]-carbamid acid 4,5-dimethoxy-2-nitro-benzyl ester]: the class (activity class 1-3: percent of control at 10^-7 M or IC50) was 3 (Class 3 The value of percent of control at 10^−7 M was more than 60% or the value of IC50 was more than 200 nM.).

As for `CN(C)c1cc(N[C@H]2CC[C@@H](NC(=O)Nc3ccc4c(c3)OCCCO4)CC2)nc2ccccc12` [compound 2164], the class under setting [1] is given as 3 (Class 3 The value of percent of control at 10^−7 M was more than 60% or the value of IC50 was more than 200 nM.).

As to `CN(C)c1cc(N[C@H]2CC[C@@H](NC(=O)c3ccc4nonc4c3)CC2)nc2ccccc12` [compound 23, N-(cis-4-{[4-(dimethylamino)quinolin-2-yl]amino}cyclohexyl)-2,1,3-benzoxadiazole-5-carboxamide], the class under setting [5] is reported as 1 (Class 1: The value of percent of control at 10^−7 M was less than 40% or the value of IC50 was less than 50 nM.).

Consider `CSc1sc(C(=O)N[C@H]2CC[C@@H](Nc3nc4c(c(N(C)C)n3)CCCC4)CC2)c(I)c1S(=O)(=O)C(C)C` [compound 1042], for which, under setting [2], the class is 3 (Class 3 The value of percent of control at 10^−7 M was more than 60% or the value of IC50 was more than 200 nM.).

Regarding `COc1cccc(C(=O)N[C@H]2CC[C@@H](Nc3nc(C)cc(N(C)C)n3)CC2)c1` [Example 2564, N-(cis-4-{[4-(dimethylamino)-6-methylpyrimidin-2-yl]amino}cyclohexyl)-3-methoxybenzamide], the class is 1.

Turning to `CN(C)c1nc(N[C@H]2CC[C@@H](NC(=O)C3CC(=O)c4ccccc43)CC2)nc2c1CCCC2` (relative stereo) [compound 960], the class under setting [1] is recorded as 2 (Class 2: The value of percent of control at 10^−7 M was from 40% to 60% or the value of IC′50 was from 50 nM to 200 nM.).

The values above are taken from US20050197350A1, “Novel quinoline, tetrahydroquinazoline, and pyrimidine derivatives and methods of treatment related to the use thereof” (TAISHO PHARMACEUTICAL CO., LTD., priority 2003, published 2005).
